Target: human NaV 1.8 channels stably expressed in HEK 293 cells (Homo sapiens (Human), UniProt Q9Y5Y9)
Experiment: Nav1.8 Qube automated patch-clamp assay
Format: cell-based
Settings: human NaV1.8 in HEK 293 cells, whole-cell voltage clamp, room temperature; read-out: IC50 values (nM) for Examples in the Nav1.8 Qube Assay
Protocol: Compounds were tested on human NaV 1.8 and NaV1.5 channels stably expressed in human embryo kidney (HEK) 293 cells. Sodium current measurements on Qube® were conducted as follows: automated 384-well patch-clamp assays on the Qube® platform (Sophion Biosciences) were used to measure the inhibition of sodium flow through human NaV1.8 and NaV1.5 channels. Whole-cell voltage-clamp recordings were performed in QChips® (Sophion Biosciences) at room temperature. NaV1.8 current measurements on Qube® were obtained as follows: NaV1.8 currents were elicited with a 10 second 1 Hertz (Hz) pulse train from a holding potential of −90 millivolts (mV), delivered to the cells once per minute in the control condition (DMSO only) and after compound addition. The 1 hertz pulse train stimulation consisted of ten test pulses to 10 millivolt (mV) for 20 milliseconds (ms), each of which was followed by a 980 millisecond repolarization to −67 millivolts. At the end of the 10 second pulse train stimulation, a 5 second hyperpolarization step to −100 millivolt (mV) was used to recover NaV1.8 from fast inactivation. The peak currents elicited by the 1st and 10th test pulses were used to determine IC50 values for resting inhibition and inactivated state inhibition. NaV1.5 current measurements on Qube® were obtained as follows: NaV1.5 currents were elicited with a 20 second 3 Hertz pulse train in the control condition (DMSO only) and after compound addition. The pulse train consisted of sixty 20 millisecond test pulses to 0 millivolt from a holding potential of −80 millivolt (mV). The average peak currents elicited by the last 3 test pulses were used to determine IC50 values for NaV1.5 inhibition.
The following buffers were used for the Qube® recordings: External buffer for NaV1.8 Qube® recording: 150 NaCl, 2 CaCl2, 5 KCl, 1 MgCl2, 10 HEPES, 12 Dextrose; External buffer for Qube® NaV1.5 recording: 120 N-Methyl-D-Glucamine, 40 NaCl, 1 KCl, 2.7 CaCl2), 5 HEPES, 0.5 MgCl2; and Internal buffer for Qube® recording: 120 CsF, 30 CsCl, 10 EGTA, 5 HEPES, 5 NaF, 2 MgCl2.
For all Qube® experiments offline analysis was used to determine percent inhibition as a function of drug concentration. IC50 values were determined by fitting to the Hill equation.

Chain of human NaV 1.8 channels stably expressed in HEK 293 cells (Q9Y5Y9 whole entry): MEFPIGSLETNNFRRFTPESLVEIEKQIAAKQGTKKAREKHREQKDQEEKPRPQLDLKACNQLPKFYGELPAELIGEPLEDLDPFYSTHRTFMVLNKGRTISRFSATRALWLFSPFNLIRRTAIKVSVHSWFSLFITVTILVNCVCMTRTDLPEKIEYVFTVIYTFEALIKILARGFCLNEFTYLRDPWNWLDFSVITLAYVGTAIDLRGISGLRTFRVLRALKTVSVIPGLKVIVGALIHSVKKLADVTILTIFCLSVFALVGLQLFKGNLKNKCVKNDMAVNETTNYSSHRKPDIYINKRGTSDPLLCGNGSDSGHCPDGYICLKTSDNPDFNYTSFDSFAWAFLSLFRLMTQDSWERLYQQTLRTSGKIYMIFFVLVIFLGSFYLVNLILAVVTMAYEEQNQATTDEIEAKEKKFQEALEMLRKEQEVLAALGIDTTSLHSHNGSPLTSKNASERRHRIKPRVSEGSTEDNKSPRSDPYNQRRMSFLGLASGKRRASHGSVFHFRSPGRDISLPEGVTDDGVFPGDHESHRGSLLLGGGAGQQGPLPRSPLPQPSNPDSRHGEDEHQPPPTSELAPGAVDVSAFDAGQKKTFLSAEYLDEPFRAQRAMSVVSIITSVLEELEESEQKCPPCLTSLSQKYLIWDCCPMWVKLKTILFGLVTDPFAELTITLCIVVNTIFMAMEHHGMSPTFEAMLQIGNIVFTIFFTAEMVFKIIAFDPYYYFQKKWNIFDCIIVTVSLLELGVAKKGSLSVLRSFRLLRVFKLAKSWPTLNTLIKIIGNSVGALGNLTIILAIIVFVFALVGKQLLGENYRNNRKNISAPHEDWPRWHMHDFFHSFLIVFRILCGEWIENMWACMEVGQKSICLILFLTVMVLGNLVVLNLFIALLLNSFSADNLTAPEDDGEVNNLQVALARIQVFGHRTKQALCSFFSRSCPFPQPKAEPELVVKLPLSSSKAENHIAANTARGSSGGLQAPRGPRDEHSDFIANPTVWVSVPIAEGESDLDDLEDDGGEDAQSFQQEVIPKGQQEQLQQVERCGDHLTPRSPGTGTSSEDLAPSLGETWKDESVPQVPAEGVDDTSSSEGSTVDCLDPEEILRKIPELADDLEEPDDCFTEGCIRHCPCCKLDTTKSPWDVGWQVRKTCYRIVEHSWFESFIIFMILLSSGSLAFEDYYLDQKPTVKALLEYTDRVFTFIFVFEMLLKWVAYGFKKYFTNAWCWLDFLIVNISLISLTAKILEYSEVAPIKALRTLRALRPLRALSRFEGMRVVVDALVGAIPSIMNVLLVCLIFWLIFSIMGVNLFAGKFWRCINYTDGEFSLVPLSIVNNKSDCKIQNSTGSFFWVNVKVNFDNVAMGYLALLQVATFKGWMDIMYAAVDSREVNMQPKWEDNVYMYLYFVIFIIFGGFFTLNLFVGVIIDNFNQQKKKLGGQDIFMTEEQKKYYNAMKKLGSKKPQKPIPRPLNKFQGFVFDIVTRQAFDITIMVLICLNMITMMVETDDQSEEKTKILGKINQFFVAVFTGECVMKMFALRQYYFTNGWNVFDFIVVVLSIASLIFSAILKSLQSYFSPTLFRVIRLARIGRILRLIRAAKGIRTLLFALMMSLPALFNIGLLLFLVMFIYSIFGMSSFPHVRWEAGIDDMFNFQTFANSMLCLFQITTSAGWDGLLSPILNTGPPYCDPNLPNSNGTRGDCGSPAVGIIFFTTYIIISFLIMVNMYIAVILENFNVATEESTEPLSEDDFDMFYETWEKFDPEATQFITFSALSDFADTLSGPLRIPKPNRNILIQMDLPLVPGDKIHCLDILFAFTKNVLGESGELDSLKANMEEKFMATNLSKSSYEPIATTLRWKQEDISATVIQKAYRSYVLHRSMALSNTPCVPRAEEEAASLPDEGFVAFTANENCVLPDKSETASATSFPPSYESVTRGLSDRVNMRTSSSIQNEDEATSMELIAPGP

SMILES	IC50
C[C@@H]1C(=O)NCCN1C(=O)NC(c1ccc(OC(F)(F)F)c(F)c1)c1ccc(F)c(C(F)(F)F)n1 (single isomer, unassigned) [Example 56B, (2R)-N-((S or R)-(3-fluoro-4-(trifluoro-methoxy)phenyl)(5-fluoro-6-(trifluoro-methyl)pyridin-2-yl)methyl)-2-methyl-3-oxopiperazine-1-carboxamide]	1.31 nM
C[C@@H]1C(=O)NCCN1C(=O)NC(c1cnc(OCC(F)(F)F)s1)c1ccc(F)c(Cl)c1F (single isomer, unassigned) [Example 13A, (2R)-N-((R or S)-(3-chloro-2,4-difluoro-phenyl)(2-(2,2,2-tri-fluoroethoxy)thiazol-5-yl)methyl)-2-methyl-3-oxopiperazine-1-carboxamide]	2.13 nM
C[C@@H]1C(=O)NCCN1C(=O)NC(c1ccc(C(F)(F)F)nc1)c1ccc(Cl)c(C(F)(F)F)n1 (single isomer, unassigned) [Example 81A, (2R)-N-((R or S)-(5-chloro-6-(trifluoromethyl)pyridin-2-yl)(6-(trifluoro-methyl)pyridin-3-yl)methyl)-2-methyl-3-oxopiperazine-1-carboxamide]	8 nM
O=C1CN(C(=O)NC(c2ccc(Cl)c(F)c2)c2ccc(F)c(C(F)(F)F)n2)CCN1 (single isomer, unassigned) [Example 54A, N-((R or S)-(4-chloro-3-fluorophenyl)(5-fluoro-6-(trifluoromethyl)pyridin-2-yl)methyl)-3-oxopiperazine-1-carboxamide]	285 nM
C[C@@H]1C(=O)NCCN1C(=O)NC(c1ccc(Cl)c(C(F)(F)F)n1)c1ccc(F)c(Cl)c1F (single isomer, unassigned) [Example 77B, (2R)-N-((S or R)-(3-chloro-2,4-difluorophenyl)(5-chloro-6-(trifluoromethyl)pyridin-2-yl)methyl)-2-methyl-3-oxopiperazine-1-carboxamide]	1.06 nM
C[C@@H]1C(=O)NCCN1C(=O)NC(c1ccc(OC(F)(F)F)c(Cl)c1)c1cnc(C(F)(F)F)c(Cl)c1 (single isomer, unassigned) [Example 22A, (2R)-N-((R or S)-(3-chloro-4-(trifluoro-methoxy)phenyl)(5-chloro-6-(trifluoro-methyl)pyridin-3-yl)methyl)-2-methyl-3-oxopiperazine-1-carboxamide]	0.31 nM
C[C@@H]1C(=O)NCCN1C(=O)NC(c1ccc(OC(F)F)nc1)c1ccc(F)c(Cl)c1F (single isomer, unassigned) [Example 31A, (2R)-N-((R or S)-(3-chloro-2,4-difluoro-phenyl)(6-(difluoro-methoxy)pyridin-3-yl)methyl)-2-methyl-3-oxopiperazine-1-carboxamide]	3.47 nM
C[C@@H]1C(=O)NCCN1C(=O)NC(c1ccc(OC(F)(F)F)cc1)c1cc(C(F)(F)F)n[nH]1 (single isomer, unassigned) [Example 87B, (2R)-2-methyl-3-oxo-N-((S or R)-(4-(trifluoromethoxy)phenyl)(3-(trifluoromethyl)-1H-pyrazol-5-yl)methyl)piperazine-1-carboxamide]	10.8 nM
C[C@@H]1C(=O)NCCN1C(=O)NC(c1ccc(F)c(Cl)c1)c1ccn(C(F)F)n1 (single isomer, unassigned) [Example 66B]	82.3 nM
C[C@@H]1C(=O)NCCN1C(=O)NC(c1cnn(-c2ccc(F)cc2)c1)c1ccc(F)c(Cl)c1F (single isomer, unassigned) [Example 65B, (2R)-N-((S or R)-(3-chloro-2,4-difluoro-phenyl)(1-(4-fluoro-phenyl)-1H-pyrazol-4-yl)methyl)-2-methyl-3-oxopiperazine-1-carboxamide]	89.3 nM
C[C@@H]1C(=O)NCCN1C(=O)NC(c1ccc(OC(F)F)nc1)c1ccc(F)c(Cl)c1F (single isomer, unassigned) [Example 31B, (2R)-N-((S or R)-(3-chloro-2,4-difluoro-phenyl)(6-(difluoro-methoxy)pyridin-3-yl)methyl)-2-methyl-3-oxopiperazine-1-carboxamide]	16.1 nM

Source: patent US20240246932A1 (Merck Sharp & Dohme LLC, priority 2021, published 2024)
